The values below are quoted from earlier work in patent US9457044B2, “Methods and compositions for wound healing” (CoDa Therapeutics, Inc., priority 2006, dated 2016).

Bounds are passed on as bounds.

For the data set the following is noted: cited from earlier work.

As for PDGF, the “effective dose when applied topically” value (U.S. Pat. No. 4,861,757) was ≥ 5 ng/mm^2.

B1: KGF: keratinocyte growth factor (protein, UniProt P21781 32-194, looked up)
Fibroblast growth factor 7: CNDMTPEQMATNVNCSSPERHTRSYDYMEGGDIRVRRLFCRTQWYLRIDKRGKVKGTQEMKNNYNIMEIRTVAVGIVAIKGVESEFYLAMNKEGKLYAKKECNEDCNFKELILENHYNTYASAKWTHNGGEMFVALNQKGIPVRGKKTKKEQKTAHFLPMAIT
Regarding B1, the “concentration effective for wound healing by topical application to epithelial tissue” value (about 50 μl, Sotozono et al. 1995) is listed as “about 5 μg/ml”.
